From ChEMBL document CHEMBL1131757, “4,10-dihydro-5H-thieno[3,2-c][1]benzazepine derivatives and 9,10-dihydro-4H-thieno[2,3-c][1]benzazepine derivatives as orally active arginine vasopressin receptor antagonists” (Bioorg Med Chem Lett, 1999)

What was measured:
[1] = tested on: Rattus norvegicus; assay: Amount of urine output was measured in rat at a dose of 10 mg/kg administered orally; assay type: ADME, organism-based; parameters: dose 10 mg/kg, route oral; settings: in vivo, po
[2] = target: T1, Vasopressin V1a receptor (Homo sapiens, UniProt P37288); assay: In vitro inhibition of [3H]- AVP binding to V1a receptor from human platelet membrane
Target sequence in this assay (P37288 whole entry): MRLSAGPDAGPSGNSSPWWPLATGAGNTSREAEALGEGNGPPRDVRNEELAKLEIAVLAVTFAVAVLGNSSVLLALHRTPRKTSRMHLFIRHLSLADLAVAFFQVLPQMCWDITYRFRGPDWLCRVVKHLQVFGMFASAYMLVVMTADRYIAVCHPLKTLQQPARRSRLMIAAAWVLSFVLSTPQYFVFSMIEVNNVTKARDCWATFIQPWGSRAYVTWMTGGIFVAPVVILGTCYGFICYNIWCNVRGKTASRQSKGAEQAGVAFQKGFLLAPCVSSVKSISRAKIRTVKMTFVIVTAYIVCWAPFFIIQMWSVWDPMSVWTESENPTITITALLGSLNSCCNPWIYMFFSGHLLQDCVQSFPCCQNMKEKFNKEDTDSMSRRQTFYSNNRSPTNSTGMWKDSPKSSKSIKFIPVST

[3] = target: Vasopressin V2 receptor (Homo sapiens, UniProt P30518); assay: In vitro inhibition of [3H]AVP binding to human V2 receptor from murine fibroblast cell line (LV2); assay type: cell-based
Vasopressin V2 receptor, sequence (P30518 whole entry): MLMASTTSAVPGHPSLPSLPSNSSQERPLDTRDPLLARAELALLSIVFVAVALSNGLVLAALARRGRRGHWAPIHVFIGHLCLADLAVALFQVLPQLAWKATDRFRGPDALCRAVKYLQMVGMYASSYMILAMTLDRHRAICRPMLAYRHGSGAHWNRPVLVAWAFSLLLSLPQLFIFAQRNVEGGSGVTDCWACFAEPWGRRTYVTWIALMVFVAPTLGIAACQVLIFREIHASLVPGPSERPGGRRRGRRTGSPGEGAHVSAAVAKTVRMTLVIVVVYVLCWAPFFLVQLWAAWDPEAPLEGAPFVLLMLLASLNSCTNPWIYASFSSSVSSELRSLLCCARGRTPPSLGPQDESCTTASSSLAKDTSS

[4] = target: T1, Vasopressin V1a receptor; assay: In vitro inhibition of [3H]- AVP binding to V1a receptor from human platelet membrane at 10 uM
Target sequence in this assay (P37288 whole entry, looked up): as the sequence (P37288 whole entry) above

Cc1ccc(F)cc1C(=O)Nc1ccc(C(=O)N2Cc3sccc3Cc3ccccc32)cn1
Urine volume [1]: 16.5 ml 4hr-1

Cc1ccccc1C(=O)Nc1ccc(C(=O)N2Cc3ccsc3Cc3ccccc32)cc1
Urine volume [1]: 4.5 ml 4hr-1

O=C(Nc1ccc(C(=O)N2Cc3sccc3Cc3ccccc32)cc1)c1ccc(Cl)cc1Cl
Urine volume [1]: 5.8 ml 4hr-1 | IC50 [2]: 43 nM | IC50 [3]: 19 nM

Cc1ccccc1C(=O)Nc1ccc(C(=O)N2Cc3sccc3Cc3ccccc32)cc1
Urine volume [1]: 13.5 ml 4hr-1 | IC50 [2]: 8.5 nM | IC50 [3]: 0.7 nM

Cc1ccc(F)cc1C(=O)Nc1ccc(C(=O)N2Cc3sccc3Cc3ccccc32)c(Cl)c1
Urine volume [1]: 30 ml 4hr-1 | inhibition [4]: 59% | IC50 [3]: 6.8 nM

Cc1ccc(F)cc1C(=O)Nc1ccc(C(=O)N2Cc3cccn3Cc3ccccc32)c(Cl)c1 [LIXIVAPTAN]
Urine volume [1]: 35 ml 4hr-1
